# Source: patent publication US7553826B2, “Cytarabine monophosphate prodrugs” (Metabasis Therapeutics, Inc., priority 2002, dated 2009)
# Values joined by “and” are separate entries in the source; they are usually repeats but may differ in a detail not shown here. Identical values can stand only once.
# Legend:
# [1] = Liver araCTP and liver targeting with continuous i.v. infusion in rats
# Description: A saline filled blunt PE-50 tubing catheter (Intramedic, Becton Dickinson, Sparks, Md.) was inserted into the jugular vein, exteriorized between the scapulae and connected to a swivel-tethering constant infusion system (Lomir Biomedical, Inc., Malone, N.Y. and Harvard Apparatus, Inc., South Natick, Mass.). The tubing was filled with heparinized saline and sealed, and the animals allowed to recover for one to seven days.
# After the various durations of infusion the animals were anesthetized by intra-catheter injections of the anesthetic mix described above. Blood samples were obtained via cardiac puncture using a 23-gauge needle attached to a heparin coated 3 cc syringe.
# (§1) In those studies, liver, plasma and bone marrow samples were obtained at necropsy to evaluate liver targeting.
# (§2) Results are expressed as mean±standard error of the mean. When appropriate, AUC was calculated from time zero to the last time-point of the study. Liver targeting indices (LTIs) were calculated by dividing the liver araCTP AUC by the AUC for plasma araC (plasma LTI) or by the AUC for bone marrow araCTP (bone marrow LTI) for each compound. For the continuous infusion studies, the steady state araCTP levels were divided by the steady state plasma araC levels.
# [2] = Single dose i.p. bolus liver levels / liver targeting in mice
# Experimental: At specified times post injection, mice were anesthetized and exsanguinated via cardiac puncture. The whole liver was removed, and snap-frozen in liquid nitrogen, and homogenized using a Polytron homogenizer PT 10/35 (Brinkmann Instruments, Westbury, N.Y.) in 3 volumes of 10% (v/v) perchloric acid (PCA). After a 5 min centrifugation at 2,500×g, 1 mL of supernatant was neutralized using 0.3 mL 3 M KOH/3 M KHCO3 and mixed thoroughly. Samples were then centrifuged for 5 minutes and resulting supernatants were treated with periodate in order to remove endogenous ribonucleotides which otherwise might interfere with araCTP detection. […] Resulting samples were analyzed by HPLC as described below.
# To measure bone marrow araCTP, the bone marrow samples were flushed from the marrow cavities of femurs with 1.2 ml saline into pre-weighed Eppendorf tubes. After centrifugation for 20-30 seconds (Eppendorf microfuge, 14,000 rpm) and removal of the supernatant, 12 volumes of 3% PCA (v/v) were added to the bone marrow cell pellets. Samples were then vortexed until the pellet was well dissolved and centrifuged as above for 10 min. Ninety μL of extracted supernatant was neutralized to pH 7-8 using 30 μL 1 M KOH/1 M KHCO3 and again centrifuged. Resulting supernatants were periodate-treated as above.
# Samples (50 μL) were injected onto the column in 70% 10 mM ammonium phosphate buffer and 30% 1 M ammonium phosphate buffer, both at pH 3.5 and containing 6% ethanol. […] A standard curve was prepared by adding known amounts of araCTP into PCA extracts from control liver or bone marrow prior to neutralizing, and preparing HPLC samples accordingly.
# To obtain plasma, blood was transferred to heparinized micro-collection tubes and centrifuged in an Eppendorf microfuge at 14,000 rpm for 2 minutes. Resulting plasma was collected, placed on dry ice, and subsequently stored at −20° C. On the day of analysis, proteins were precipitated by adding 1 mL acetonitrile to 100 μL of plasma. After 10 min centrifugation (Eppendorf microfuge, 14,000 rpm), the supernatant was removed and dried in a Savant SpeedVac Plus SC110A. Samples were reconstituted with 110 μL of mobile phase buffer (20 mM KH2PO4, pH 4.5), sonicated for 5 min, and centrifuged for 30 seconds. […] AraC and prodrugs were detected by absorbance at 280 nm and quantitated using standard curves obtained with spiked plasma samples processed as above.
# Results are expressed as mean±standard error of the mean. Data were analyzed by repeated measures ANOVA, followed by the Tukey HSD post-hoc test for comparisons at individual time points when appropriate. A p-value of less than 0.05 was considered statistically significant. Dotted lines in figures indicate LOQ (limit of quantitation) using the indicated HPLC method.
# as §1, §2
# Solubility = assay type: physicochemical
# Experimental: With each of the three buffer systems, saturating solutions of Compound A and Compound B were prepared as follows. […] The resultant vials were sealed and equilibrated by tumbling at 25° C. for a minimum of 24 h. At the end of the incubation period, prodrug that was not in solution was removed from the samples by filtration through a 0.45 μm pore size nylon syringe filter. These diluted samples were assayed by the HPLC method of example E.
# [3] = rats, 200 mg CE/kg/day continuous intravenous infusion
smiles,measurement,setting,value
"Nc1ccn([C@@H]2O[C@H](CO[P@@]3(=O)OCC[C@@H](c4ccncc4)O3)[C@@H](O)[C@@H]2O)c(=O)n1 [Compound A, 2(1H)-Pyrimidinone, 4-amino-1-[5-O-[(2R,4S)-2-oxido-4-(4-pyridinyl)-1,3,2-dioxaphosphorinan-2-yl]-β-D-arabinofuranosyl]]",reduction of peripheral exposure (liver targeting),[1]; administered by continuous intravenous infusion,~10 fold
same,LTI @ 24 hrs (Liver/plasma),[1]; [3],7.5 nmol/g/μM
same,Liver araCTP 24 hr,[1]; [3],12.0 nmol/g
same,Liver araCTP @ 4 hr,[1]; [3],12.8 nmol/g
same,Plasma Prodrug steady state,[1]; [3],40 to 50 µM
same,Plasma araC steady state,[1]; [3],~1.6 µM
same,steady state liver araCTP levels by 4 hours,"[1]; rats, continuous infusion 200 mg/kg/24 hours",12.84 ± 1.50 nmol/g
same,average liver araCTP for the remaining 44 hours,"[1]; rats, continuous infusion 200 mg/kg/24 hours, 48 hr",13 ± 1 nmol/g
same,Liver araCTP Peak @ 1 hr,"[2]; Mouse, 100 mg (cytarabine equivalents)/kg single IP injection",96 nmol/g and 70 nmol/g
same,LTI (Liver/plasma),"[2]; Mouse, 100 mg CE/kg single IP, liver araCTP AUC / plasma araC AUC",27 nmol/g/μM and 19.5 nmol/g/μM
same,reduction of peripheral exposure (liver targeting),[2]; administered intraperitoneally,~20 fold
same,liver araCTP levels relative to Compound B,"[2]; mice, bolus i.p. injection",~2 fold
same,plasma araC levels relative to Compound B,"[2]; mice, bolus i.p. injection",~2 fold
same,liver araCTP peak at 60 minutes post injection,"[2]; mice, single i.p. bolus, 100 mg/kg CE",69.89 ± 6.37 nmol/g
same,solubility,"Solubility; 0.5 M Pi pH 8.0 buffer, 25° C",2900 µg/mL
same,solubility,"Solubility; 0.5 M citrate pH 4.0, 25° C",45800 µg/mL
same,solubility,"Solubility; 0.5 M citrate pH 7.0, 25° C",2600 µg/mL
